Source: ChEMBL document CHEMBL1201862, “PubChem BioAssay data set” (2004)
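Five concentrations, 48 hours, 96-well plates. The concentration for 50% growth inhibition is given as GI50.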 The source made the active and inactive calls. Rule as the data show it: active = GI50 up to about 1.1 µM and inactive = higher.

Assays:
Test in all cases: growth of human tumour cells (NCI), 48 h
[1] = system: HT-29
[2] = system: HCC 2998
[3] = system: A549
[4] = system: OVCAR-8
[5] = system: KM12
[6] = system: SR
[7] = system: 786-0
[8] = system: SF-268
[9] = system: U-251
[10] = system: HOP-18
[11] = system: HL-60
[12] = system: SNB-78
[13] = system: SN12C
[14] = system: TK-10
[15] = system: SF-539
[16] = system: RXF 393
[17] = system: SNB-19
[18] = system: M19-MEL
[19] = system: SNB-75
[20] = system: KM-20L2
[21] = system: UACC-62
[22] = system: K562
[23] = system: SK-MEL-5
[24] = system: M14
[25] = system: MOLT-4
[26] = system: HCT-116
[27] = system: HCT-15
[28] = system: OVCAR-4
[29] = system: DMS-273
[30] = system: OVCAR-3
[31] = system: LXFL 529
[32] = system: NCI-H460
[33] = system: DMS-114
[34] = system: OVCAR-5
[35] = system: NCI-H23
[36] = system: UO-31
[37] = system: ACHN
[38] = system: DLD-1
[39] = system: COLO 205
[40] = system: A498
[41] = system: SF-295
[42] = system: LOX IMVI
[43] = system: Malme-3M
[44] = system: SW-620
[45] = system: UACC-257
[46] = system: IGROV-1
[47] = system: CCRF-CEM
[48] = system: EKVX
[49] = system: HOP-62
[50] = system: SK-MEL-28
[51] = system: SK-OV-3
[52] = system: RPMI-8226
[53] = system: HOP-92
[54] = system: SK-MEL-2
[55] = system: NCI-H226

In the case of `Cc1c(C(=O)NCCO)[n+]([O-])c2cc(Cl)ccc2[n+]1[O-]`, the GI50 [1] is reported as > 100 µM (inactive), the GI50 [2] is reported as > 100 µM (inactive) and the GI50 [3] is reported as > 100 µM (inactive). For the same molecule, the GI50 [4] was > 100 µM (inactive), the GI50 [5] was > 100 µM (inactive) and the GI50 [6] was > 100 µM (inactive). The GI50 [7] was > 100 µM (inactive), the GI50 [8] was > 100 µM (inactive) and the GI50 [9] was > 100 µM (inactive). The GI50 [10] was > 100 µM (inactive), the GI50 [11] was > 100 µM (inactive) and the GI50 [12] was > 100 µM (inactive). For the same molecule, the GI50 [13] was > 100 µM (inactive), the GI50 [14] was > 100 µM (inactive) and the GI50 [15] was > 100 µM (inactive). For the same molecule, the GI50 [16] was > 100 µM (inactive), the GI50 [17] was > 100 µM (inactive) and the GI50 [18] was > 100 µM (inactive). For the same molecule, the GI50 [19] was 48.5 µM (inactive), the GI50 [20] was > 100 µM (inactive) and the GI50 [21] was > 100 µM (inactive). The GI50 [22] was > 100 µM (inactive), the GI50 [23] was > 100 µM (inactive) and the GI50 [24] was > 100 µM (inactive). The GI50 [25] was > 100 µM (inactive), the GI50 [26] was > 100 µM (inactive) and the GI50 [27] was over 100 µM. The GI50 [28] was > 100 µM (inactive), the GI50 [29] was > 100 µM (inactive) and the GI50 [30] was > 100 µM (inactive). For the same molecule, the GI50 [31] was > 100 µM (inactive), the GI50 [32] was > 100 µM (inactive) and the GI50 [33] was > 100 µM (inactive). The GI50 [34] was > 100 µM (inactive), the GI50 [35] was > 100 µM (inactive) and the GI50 [36] was > 100 µM (inactive). For the same molecule, the GI50 [37] was > 100 µM (inactive), the GI50 [38] was > 100 µM (inactive) and the GI50 [39] was > 100 µM (inactive). The GI50 [40] was > 100 µM (inactive), the GI50 [41] was > 100 µM (inactive) and the GI50 [42] was > 100 µM (inactive). For the same molecule, the GI50 [43] was > 100 µM (inactive), the GI50 [44] was > 100 µM (inactive) and the GI50 [45] was > 100 µM (inactive). The GI50 [46] was > 100 µM (inactive), the GI50 [47] was > 100 µM (inactive) and the GI50 [48] was > 100 µM (inactive). For the same molecule, the GI50 [49] was > 100 µM (inactive), the GI50 [50] was > 100 µM (inactive) and the GI50 [51] was 86.9 µM (inactive). For the same molecule, the GI50 [52] was > 100 µM (inactive) and the GI50 [53] was > 100 µM (inactive).
For `COc1cc(C2C(=O)C(Cl)N2Nc2nc(C)cc(O)n2)cc(OC)c1OC` (configuration not stated), the GI50 [1] was 23.8 µM (inactive), the GI50 [2] was 12.9 µM (inactive) and the GI50 [3] was 27.9 µM (inactive). For the same molecule, the GI50 [4] was 17.1 µM (inactive), the GI50 [5] was 19 µM (inactive) and the GI50 [6] was 11.6 µM (inactive). For the same molecule, the GI50 [8] was 7.01 µM (inactive), the GI50 [9] was 13.3 µM (inactive) and the GI50 [10] was 2.67 µM (inactive). For the same molecule, the GI50 [11] was 9.84 µM (inactive), the GI50 [12] was 12.4 µM (inactive) and the GI50 [13] was 14.7 µM (inactive). The GI50 [14] was 24.3 µM (inactive), the GI50 [15] was 13.5 µM (inactive) and the GI50 [16] was 12.3 µM (inactive). For the same molecule, the GI50 [17] was 30.4 µM (inactive), the GI50 [18] was 18.7 µM (inactive) and the GI50 [19] was 2.33 µM (inactive). For the same molecule, the GI50 [20] was 22.6 µM (inactive), the GI50 [21] was > 10 µM (inactive) and the GI50 [22] was 9.55 µM (inactive). The GI50 [23] was 12.9 µM (inactive), the GI50 [54] was 11.2 µM (inactive) and the GI50 [24] was 12.5 µM (inactive). The GI50 [25] was 10.6 µM (inactive), the GI50 [26] was 16.2 µM (inactive) and the GI50 [27] was 11.5 µM. The GI50 [28] was 16.1 µM (inactive), the GI50 [29] was 10.4 µM (inactive) and the GI50 [30] was 4.91 µM (inactive). The GI50 [31] was 12.9 µM (inactive), the GI50 [32] was 9.35 µM (inactive) and the GI50 [33] was 8.67 µM (inactive). For the same molecule, the GI50 [34] was 33 µM (inactive), the GI50 [35] was 15.4 µM (inactive) and the GI50 [36] was 13.4 µM (inactive). For the same molecule, the GI50 [37] was 11.1 µM (inactive), the GI50 [39] was > 10 µM (inactive) and the GI50 [42] was 10.5 µM (inactive). The GI50 [44] was 22.2 µM (inactive), the GI50 [45] was 22.5 µM (inactive) and the GI50 [46] was 10.1 µM (inactive). The GI50 [47] was < 0.01 µM (active), the GI50 [48] was 33.3 µM (inactive) and the GI50 [49] was 7.21 µM (inactive). For the same molecule, the GI50 [55] was 22.1 µM (inactive), the GI50 [50] was 17 µM (inactive) and the GI50 [52] was > 10 µM (inactive). For the same molecule, the GI50 [53] was 16.9 µM (inactive).
